What was measured:
Abp2DRBD = target: T1, Abp2DRBD (Acinetobacter baumannii, UniProt A0A7U3Y091); assay: glycan microarray (CFG v5.[…]), biotinylated protein; format: binding; conditions: protein 50 μg/mL; glycan immobilised through spacer; labelled protein
T1 construct: gene ACICU_01810

Abp1DRBD [1] = target: T2, Abp1DRBD (Acinetobacter baumannii, UniProt A0A219C937); assay: glycan microarray (CFG v5.[…]), biotinylated protein; format: binding; conditions: protein 50 μg/mL; glycan immobilised through spacer; labelled protein
T2 construct: gene fimA_2

[2] = target: bovine submaxillary mucin (BSM) (bovine); assay: BLI; biotinylated BSM loaded on streptavidin pins; Abp2DRBD constructs at 2.07 µM in 1× PBS + 2% BSA + 0.05% Tween-20; 300 s association, 300 s dissociation; end time point of association compared
Abp1DRBD [3] = target: T2, Abp1DRBD; assay: glycan microarray (CFG v5.[…]), biotinylated protein; format: binding; conditions: protein 50 μg/mL; glycan immobilised through spacer; labelled protein; remark: listed apart in the source
[4] = target: bovine submaxillary mucin (BSM); assay: BLI; conditions: parent: est. 0.65; read off a plot

| Substance | Abp2DRBD / Average RFU (Abp2DRBD) | Abp1DRBD / Average RFU (Abp1DRBD [1]) | other results |
| --- | --- | --- | --- |
| Galb1-4(Fuca1-3)GlcNAcb1-2Mana1-6(Galb1-4(Fuca1-3)GlcNAcb1-2Mana1-3)Manb1-4GlcNAcb1-4(Fuca1-6)GlcNAcb-Sp22 [compound 412] | 48,357 ± 11,791 RFU | 2,932 ± 266 RFU | – |
| Abp2D receptor-binding domain (ACICU) R102A (domain or fragment) | – | – | percent reduction of binding relative to Abp2DRBD WT [2]: 70% |
| Neu5Aca2-3Galb1-4GlcNAcb1-2Mana-Sp0 [compound 470] | 53,822 ± 4,116 RFU | 6,747 ± 133 RFU | – |
| GlcNAcb1-3Galb1-4GlcNAcb1-6(GlcNAcb1-3Galb1-4GlcNAcb1-2)Mana1-6(GlcNAcb1-3Galb1-4GlcNAcb1-2Man a1-3)Manb1-4GlcNAcb1-4GlcNAc-Sp24 [compound 545] | 39,436 ± 6,368 RFU | 3,159 ± 350 RFU | – |
| GlcNAcb1-3Galb1-4GlcNAcb1-3Galb1-4GlcNAcb1-2Mana1-6(GlcNAcb1-3Galb1-4GlcNAcb1-3Galb1-4GlcNAcb1-2Mana1-3)Manb1-4GlcNAcb1-4GlcNAcb-Sp12 [compound 535] | 34,056 ± 4,827 RFU | 4,735 ± 602 RFU | – |
| Fuca1-2Galb1-4(Fuca1-3)GlcNAcb1-2Mana1-6(Fuca1-2Galb1-4(Fuca1-3)GlcNAcb1-4(Fuca1-2Galb1-4(Fuca1-3)GlcNAcb1-2)Mana1-3)Manb1-4GlcNAcb1-4GlcNAcb-Sp12 [compound 439] | 30,667 ± 511 RFU | 3,373 ± 55 RFU | – |
| Neu5Aca2-3Galb1-4GlcNAcb1-3Galb1-4GlcNAcb1-3Galb1-4GlcNAcb1-2Mana1-6(Neu5Aca2-3Galb1-4GlcNAcb1-3Galb1-4GlcNAcb1-3Galb1-4GlcNAcb1-2Mana1-3)Manb1-4GlcNAcb1-4GlcNAcb-Sp12 [compound 582] | – | – | Abp1DRBD / SD (Abp1DRBD [3]): 9,786 ± 418 RFU |
| Abp2D receptor-binding domain from ACICU (Abp2DRBD), wild type Y100A | – | – | response [4]: 0.46 nm |
| GlcNAcb1-3Galb1-4GlcNAcb1-2Mana1-6(GlcNAcb1-3Galb1-4GlcNAcb1-2Mana1-3)Manb1-4GlcNAcb1-4GlcNAcb-Sp12 [compound 531] | 59,914 ± 1,963 RFU | 6,977 ± 1,001 RFU | – |
| Fuca1-2Galb1-4(Fuca1-3)GlcNAcb1-2Mana1-6(Fuca1-2Galb1-4(Fuca1-3)GlcNAcb1-2Mana1-3)Manb1-4GlcNAcb1-4GlcNAb-Sp20 [compound 356] | 58,018 ± 2,343 RFU | 2,867 ± 192 RFU | – |
| Galb1-3GlcNAcb1-3Galb1-3GlcNAcb-Sp0 [compound 285] | 28,674 ± 4,137 RFU | 3,392 ± 319 RFU | – |
| Abp2D receptor-binding domain (ACICU) Y141A (domain or fragment) | – | – | percent reduction of binding relative to Abp2DRBD WT [2]: 90% |
| Neu5Aca2-6Galb1-4GlcNAcb1-6GalNAca-Sp14 [compound 472] | 54,517 ± 1,322 RFU | 4,714 ± 450 RFU | – |
| Abp2D receptor-binding domain from ACICU (Abp2DRBD), wild type R86A | – | – | response [4]: 0.66 nm |
| Abp2D receptor-binding domain from ACICU (Abp2DRBD), wild type R86E | – | – | response [4]: 0.02 nm |
